# In article PMC11530130, “Peripherally restricted PICK1 inhibitor mPD5 ameliorates pain behaviors in murine inflammatory and neuropathic pain models” (JCI Insight, 2024):
# Several values for one entry are separate records, joined by “and”; a condition that tells them apart may be missing. Identical values can stand only once.
# Legend:
# [1] = Solubility in PBS by visual inspection
# Description: (§1) SUPPORTING INFORMATION: Method Section.
# (§2) Sex as a biological variable.
# (§3) All peptides were ordered from WuXI AppTec (Shanghai, China) or TAG-Copenhagen […]
# Assessment of solubility and stability of mPD5.
# Solubility was determined by visual inspection of samples dissolved in increasing concentration in 10 mM PBS as judged by full transparency and monophasic appearance.
# Stability was addressed by […] for four concentrations (2, 20, 50, and 200 µM), by leaving mPD5 in PBS at 5 °C and 25 °C for 30 days followed by HPLC-UV-MS.
# (§4) Protein expression and purification.
# (§5) Full length rat PICK1 (pET41) was, as described earlier (1), expressed in BL21-DE3-pLysS and grown at 37 °C, induced at OD600= 0.6 with 1 mM IPTG, and grown for 16 hours at 20 °C.
# Cultures were harvested and re-suspended in 50 mM Tris, 125 mM NaCl, 2 mM DTT (Sigma), 1% Triton X-100 (Sigma), 20 µg/mL DNAse 1 and half a tablet of cOmplete protease inhibitor cocktail (Roche) pr. 1 L culture. The resuspended pellets were frozen at -80 °C for later purification. […] PICK1 was eluted on ice and concentration was measured on a NanoDrop 3000.
# Fluorescence polarization binding. […]
# (§6) binding surface 96 well plates (Sigma-Aldrich, Ref. no. 3686). The plates were incubated 20 min on ice and the fluorescence polarization was measured on an Omega POLARstar plate reader (BMG LABTECH) using excitation filter of 485 nm and long pass emission filter of 520 nm. […]
# [2] = tested on: naive mice; test: Open field locomotion; format: in vivo, mouse; design: total locomotion in open field, individual mice: unit not given here; conditions: for open field locomotion per 5min bin (Fig S8A): individual animals, listed as myr
# Description: Concentration 10 µmol/kg: Wild type mice were habituated to the experimental room for a minimum of 60 min before initiation of the experiment. Female and male mice were run on separate days. Mice were injected s.c. with 10 μmol/kg mPD5 or sterile PBS directly before being placed in open field boxes (40 cm x 40 cm x 80 cm) for 2.5 hours with up to four mice in boxes at any one time. A video camera placed above the open field recorded the animals’ behaviour and Ethovision XT 13 (Noldus) was used to track the distance travelled by the […]
# Concentration 30 + 50 µmol/kg: Animals were habituated to the experimental room for a minimum of 60 min before initiation of the experiment. At initiation of experiment, the mice (all male) were injected subcutaneously (s.c.) with mPD5 (30 or 50 μmol/kg, pH adjusted to approximately 7 with 5 M NaOH) or 0.9 % saline (B.Braun, Germany) and left in their home cage for 60 min. After exactly one hour, the mice were placed in an open field (40 cm x 40 cm x 80 cm) for 60 min. A video camera placed above the open field recorded the animals’ […]
# animal. The experiment was run in cohort with Figure 2B+C of (9)). […]
# [3] = target: PICK1 (Rattus norvegicus, UniProt Q9EP80); test: Fluorescence polarization competition binding; design: Full length rat PICK1 (pET41) was, as described earlier (1), expressed in BL21-DE3-pLysS; made in house; host or cells: E. coli BL21-DE3-pLysS
# Description: as §1, §2, §3, §4, §5
# Cultures were harvested and re-suspended in 50 mM Tris, 125 mM NaCl, 2 mM DTT (Sigma), 1% Triton X-100 (Sigma), 20 µg/mL DNAse 1 and half a tablet of cOmplete protease inhibitor cocktail (Roche) pr. 1 L culture. The resuspended pellets were frozen at -80 °C for later purification. The lysate was cleared by centrifugation (36,000 x g for 30 min at 4 °C), and the supernatant was incubated with Glutathione-Sepharose 4B beads (GE Healthcare) for two hours at 4 °C under gentle rotation and then centrifuged at 4000 x g for 5 min. The supernatant was removed, and the beads were washed twice in 35 mL 50 mM Tris, 125 mM NaCl, 2 mM DTT, and 0.01% Triton-X100. The beads were transferred to PD-10 Bio-Spin® Chromatography columns (Bio-Rad) and washed with an additional 3 column volumes. Each column was sealed and 0.075 U/µL, Novagen® was added for cleavage O/N at 4 °C under gentle rotation. PICK1 was eluted on ice and concentration was measured on a NanoDrop 3000.
# Fluorescence polarization binding.
# The competition binding assay was carried out using a fixed concentration of PICK1 (0.5 µM) […]
# as §6, with “nm. The data was plotted and fitted to a competitive binding One Site fit using GraphPad” for “nm.”
# Superdex200 Increase 10/300.
# Sequence of PICK1 (Q9EP80 whole entry): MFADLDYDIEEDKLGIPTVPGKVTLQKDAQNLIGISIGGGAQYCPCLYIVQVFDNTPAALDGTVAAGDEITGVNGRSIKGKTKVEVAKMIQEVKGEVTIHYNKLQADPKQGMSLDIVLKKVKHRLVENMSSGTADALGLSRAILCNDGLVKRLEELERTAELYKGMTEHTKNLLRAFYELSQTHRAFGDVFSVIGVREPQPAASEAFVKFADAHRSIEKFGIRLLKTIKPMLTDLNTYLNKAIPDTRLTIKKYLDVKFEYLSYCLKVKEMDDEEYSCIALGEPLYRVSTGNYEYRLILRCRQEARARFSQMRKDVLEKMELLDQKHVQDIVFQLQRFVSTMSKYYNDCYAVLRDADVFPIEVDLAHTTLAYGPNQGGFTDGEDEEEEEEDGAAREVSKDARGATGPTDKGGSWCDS
smiles,measurement,setting,value
"CCCCCCCCCCCCCC(=O)N(CCOCCOCCC(=O)N[C@@H](Cc1c[nH]cn1)C(=O)N[C@@H](Cc1c[nH]c2ccccc12)C(=O)N[C@@H](CC(C)C)C(=O)N[C@@H](CCCCN)C(=O)N[C@H](C(=O)O)C(C)C)CCOCCOCCC(=O)N[C@@H](Cc1c[nH]cn1)C(=O)N[C@@H](Cc1c[nH]c2ccccc12)C(=O)N[C@@H](CC(C)C)C(=O)N[C@@H](CCCCN)C(=O)N[C@H](C(=O)O)C(C)C [mPD5, myristoyl-NPEG4-(HWLKV)2]",solubility,[1],≥ 250000 µg/mL and ~130000 µM
same,overall locomotion in open field,"[2]; both sexes, s.c. 10 μmol/kg, 150 minutes",overall locomotion was the same between groups
same,open field locomotion per 5min bin (Fig S8A),"[2]; myr 30 sc, time bin 5",9.792 and 20.2101 and 12.2703 and 19.016 and 30.6965 and 16.9458
same,open field locomotion per 5min bin (Fig S8A),"[2]; myr 30 sc, time bin 10",7.961 and 14.7148 and 7.884 and 18.3273
same,open field locomotion per 5min bin (Fig S8A),"[2]; myr 30 sc, time bin 35",5.715 and 10.7688 and 1.1088 and 12.4123 and 20.664 and 5.688
same,open field locomotion per 5min bin (Fig S8A),"[2]; myr 30 sc, time bin 40",11.1707 and 7.0291 and 1.7211 and 14.3893 and 18.0978 and 1.491
same,open field locomotion per 5min bin (Fig S8A),"[2]; myr 30 sc, time bin 45",1.78 and 8.087 and 5.349 and 15.4878 and 14.3776 and 5.135
same,open field locomotion per 5min bin (Fig S8A),"[2]; myr 30 sc, time bin 50",0.4107 and 5.0774 and 0.9705 and 10.9758 and 18.1434 and 3.971
same,open field locomotion per 5min bin (Fig S8A),"[2]; myr 30 sc, time bin 55",2.375 and 2.374 and 0.2143 and 12.0295 and 18.4127 and 1.9358
same,open field locomotion per 5min bin (Fig S8A),"[2]; myr 30 sc, time bin 60",5.982 and 3.075 and 0.4734 and 12.4806 and 21.7634 and 4.464
same,open field locomotion per 5min bin (Fig S8A),"[2]; myr 50 sc, time bin 5",18.0979 and 18.5029 and 7.528 and 18.9529 and 21.6506 and 14.4427 and 14.0357
same,open field locomotion per 5min bin (Fig S8A),"[2]; myr 50 sc, time bin 10",7.558 and 10.3984 and 2.952 and 12.1538 and 11.8366
same,open field locomotion per 5min bin (Fig S8A),"[2]; myr 50 sc, time bin 35",4.238 and 1.175 and 0.5656 and 5.236 and 7.164 and 13.3118 and 5.291
same,open field locomotion per 5min bin (Fig S8A),"[2]; myr 50 sc, time bin 40",1.639 and 8.588 and 1.093 and 4.076 and 7.194 and 14.7431 and 4.194
same,open field locomotion per 5min bin (Fig S8A),"[2]; myr 50 sc, time bin 45",1.4137 and 3.876 and 1.161 and 4.905 and 5.068 and 11.8464 and 7.804
same,open field locomotion per 5min bin (Fig S8A),"[2]; myr 50 sc, time bin 50",0.9835 and 5.464 and 0.5467 and 1.258 and 0.6955 and 8.558 and 8.666
same,open field locomotion per 5min bin (Fig S8A),"[2]; myr 50 sc, time bin 55",1.533 and 3.196 and 1.532 and 1.249 and 4.7524 and 13.5785 and 1.184
same,open field locomotion per 5min bin (Fig S8A),"[2]; myr 50 sc, time bin 60",1.079 and 3.0668 and 0.6715 and 10.3299 and 7.512 and 5.91 and 5.742
same,"total locomotion in open field, individual mice","[2]; s.c. 10 μmol/kg, 150 minutes",177.609 and 107.816 and 106.645 and 245.588 and 278.41 and 220.659 and 185.74 and 353.332 and 277.158 and 380.649 and 207.835
same,locomotor activity in open field,[2]; s.c. 30 or 50 μmol/kg,did not show any significant effect on locomotor activity
same,Ki,[3],3 nM
same,affinity gain compared with D5 (HWLKV) alone,"[3]; from Ki,app",approximately 1000 fold
same,affinity gain compared with PD5,"[3]; from Ki,app",30 fold
